Experiments:
PC12 cell = test: Inhibition of [3H]-norepinephrine release from PC12 cells; assay type: cell-based; settings: normal PC12 cells, FIG. 4
Experimental: PC12 cells were cultured in a Ham's F12K medium where 10% […], 5% fetal bovine serum, and antibiotics were added in a collagen-coated plate (60 mm dish). In subculture, after sucking of the medium, 2 ml of PBS was added and cells were separated from a dish wall through pipetting. Then, centrifugation with 1,000×g for 5 minutes was carried out to obtain cells. A new medium was introduced, and a cell pellet was dispersed through pipetting and was loaded onto a new culture plate. And culture was carried out at 37° C. in a culture medium providing 5% CO2 gas. [^3H]-norepinephrine used for the experiment was purchased from Amersham. After sucking of the medium in the plate of PC12 cells, PBS was added and cells were separated from a plate wall. Then, the number of cells was measured by a hemacytometer, and the cells were dispersedly inoculated into a new medium at a concentration of 2×10^5 cell/ml. After 24 hours, a buffer solution ([^3H]—NE, 1.5 μCi/ml) for assay of norepinephrine was added, and then the cells were induced in a carbon dioxide incubator for 90 minutes. After the reaction, the buffer solution was removed and the cells were washed three times with PBS. Then, a new medium and each polyphenol compound were loaded and a reaction was performed for 30 minute. […]

[1] = target: T1, membrane fusion caused by SNARE (SNAP25, syntaxin 1A, VAMP2) (UniProt P60879+P63045+Q16623); test: Membrane fusion assay with SNARE-reconstituted liposomes (fluorescence); assay type: biochemical; settings: for remaining activity at 20 µM: 20 μM phenolic compound, 100% = no inhibitor added, read-out: Membrane fusion caused by SNARE (% of fusion without inhibitor); for Reduction of membrane fusion (in words): FIG. 3; for Ratio for inhibition by 50% (IR50), membrane fusion: molar concentration ratio phenolic compound:SNAP-25, average of at least three measurements
T1 construct: made in house; host or cells: E. coli (Codon (+) RIL, Novagen)
Experimental: In order to produce SNARE proteins, SNARE proteins, such as SNAP25 (NM011428), syntaxin 1A (AF217197), and VAMP2 (NM012663), were purified in biologically transformed E. coli (Codon (+) RIL, Novagen).
In order to prepare liposome (fine membrane) marked with a fluorescent substance, POPC (62 mol %), DOPS (35 mol %), NBD-PS (1.5 mol %) and a fluorescent substance Rhodamin-PE (1.5 mol %) were mixed to obtain 10 mM of liposome (v-vesicle). Also, in order to prepare a liposome not marked with a fluorescent substance, DOPS and POPC were mixed in a molar concentration ratio of 35:65 to obtain 50 mM of liposome (t-vesicle). In order to prepare a complex of the purified SNAP25 and syntaxin 1a, the SNAP25 and the syntaxin 1a were mixed in a molar concentration ratio of 1:1, and then were reacted at room temperature for 1 hour. Then, the resultant mixture and the liposome not marked with a fluorescent substance were mixed in a molar ratio of 100:1. The VAMP2 and the liposome marked with a fluorescent substance were mixed in a molar ratio of 50:1. Then, each of the two kinds of liposomes was dialyzed by using 10 kDa dialyzing membrane through agitation at 4° C. for 24 hours, and the liposomes were mixed in a ratio of 3:7 (v-vesicle t-visicle). Next, fluorescence was measured by using a fluorometer (SpectraMax M2 manufactured by Molecular Device).
Herein, 100% indicates the degree of membrane fusion in the state where no inhibitor was added. As the value is smaller, the inhibiting degree is higher.

[2] = target: T2, SNARE complex (SNAP25, SynH3, Vps) (UniProt P60879+P63045+Q16623); test: SDS-PAGE analysis of SNARE complex formation; assay type: biochemical; settings: for Inhibition of SNARE complex formation (in words): FIG. 2, concentration series; for SNARE complex formation (%): control = 100, footnote: [phenolic compound]:SNAP-25 = 1:1, SNARE proteins 10 μM each, polyphenol 100 μM, room temperature 30 min; for Ratio for inhibition by 50% (IR50), SNARE complex formation: molar concentration ratio phenolic compound:SNAP-25, average of at least three measurements
T2 construct: SynH3 (AF217197); Vps (NM012663); made in house; host or cells: E. coli (Codon (+) RIL, Novagen)
Experimental: A SNARE complex is strong enough so as not to be untwisted by SDS. On the basis of such a property, a SDS-PAGE analysis was performed in order to determine the formation of a SNARE complex. Polyphenol compounds used in the present Example were purchased from Sigma-Aldrich, Wako Chemical, and Extrasynthese.
In order to produce SNARE proteins, SNARE proteins, such as, SNAP25 (NM011428), syntaxin 1A (AF217197), VAMP2 (NM012663), SynH3 (AF217197), and Vps (NM012663), were purified in biologically transformed E. coli (Codon (+) RIL, Novagen).
Then, the materials were quickly mixed by a vortex, and were reacted at room temperature for 30 minutes. […]

T2 sequence (P60879 whole entry): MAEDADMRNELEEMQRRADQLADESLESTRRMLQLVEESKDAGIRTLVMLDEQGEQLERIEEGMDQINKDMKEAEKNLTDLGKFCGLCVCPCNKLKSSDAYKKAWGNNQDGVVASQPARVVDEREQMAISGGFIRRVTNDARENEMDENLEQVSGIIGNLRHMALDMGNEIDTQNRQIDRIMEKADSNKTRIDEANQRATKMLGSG
T2 sequence (Q16623 192-254 limits assumed): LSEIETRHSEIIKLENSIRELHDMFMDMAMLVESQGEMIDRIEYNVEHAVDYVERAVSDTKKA
T2 sequence (P63045 2-94 limits assumed): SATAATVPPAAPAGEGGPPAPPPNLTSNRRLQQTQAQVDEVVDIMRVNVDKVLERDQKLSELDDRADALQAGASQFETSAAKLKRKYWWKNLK
T1 sequence (P60879 whole entry, the tested form may be a part): as the sequence (P60879 whole entry) above
T1 sequence (Q16623 whole entry, the tested form may be a part): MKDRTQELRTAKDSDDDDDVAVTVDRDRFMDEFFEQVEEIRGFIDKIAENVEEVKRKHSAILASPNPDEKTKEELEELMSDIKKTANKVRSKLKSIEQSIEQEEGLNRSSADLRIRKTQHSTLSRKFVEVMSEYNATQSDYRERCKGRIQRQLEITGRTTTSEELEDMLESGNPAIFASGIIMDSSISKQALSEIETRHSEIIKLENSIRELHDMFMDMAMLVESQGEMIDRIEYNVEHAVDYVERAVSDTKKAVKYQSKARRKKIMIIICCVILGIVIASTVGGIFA
T1 sequence (P63045 whole entry, the tested form may be a part): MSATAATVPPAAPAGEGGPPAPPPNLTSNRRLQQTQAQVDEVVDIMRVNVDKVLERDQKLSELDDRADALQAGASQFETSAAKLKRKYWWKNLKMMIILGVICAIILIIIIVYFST

| Structure (SMILES) | Norepinephrine release inhibiting effect (in words) (PC12 cell) | remaining activity at 20 µM [1] [%] | Reduction of membrane fusion (in words) [1] | Ratio for inhibition by 50% (IR50), membrane fusion [1] | Inhibition of SNARE complex formation (in words) [2] | SNARE complex formation (%) [2] [%] | Ratio for inhibition by 50% (IR50), SNARE complex formation [2] |
| --- | --- | --- | --- | --- | --- | --- | --- |
| O=c1c(O)c(-c2cc(O)c(O)c(O)c2)oc2cc(O)cc(O)c12 [Myricetin] | relatively high norepinephrine release inhibiting effects | 43.9 ± 8.38 | can reduce membrane fusion | 0.79 | inhibit the formation of a SNARE complex by 50% at a low concentration | 72.13 ± 10.13 | 14.9 |
| O=C(/C=C/c1ccc(O)c(O)c1)c1ccc(O)cc1O [Butein] | relatively high norepinephrine release inhibiting effects | 16.9 ± 2.98 | can reduce membrane fusion | 0.81 | inhibit the formation of a SNARE complex by 50% at a low concentration | 88.45 ± 7.09 | 30.5 |

Source: patent publication US8263643B2, “Polyphenol compounds with modulating neurotransmitter release” (Sungkyunkwan University Foundation for Corporate …, priority 2007, dated 2012)
